From the NIST ThermoML archive (doi:10.1016/j.tca.2011.10.030)
± gives the expanded uncertainty stated by the source.

Experiments:
[1] = 101 kPa, Liquid; for viscosity: Capillary tube (Ostwald / Ubbelohde) method; for mass density: Vibrating tube method
[2] = xn = mol fraction of the nth substance listed; conditions: 101 kPa, Liquid, x2 = 0; for viscosity: Capillary tube (Ostwald / Ubbelohde) method; for mass density: Vibrating tube method

SMILES	viscosity ([1]; 293.15 K) [mPa·s]	mass density ([1]; 293.15 K) [kg/m3]	viscosity ([1]; 303.15 K) [mPa·s]	mass density ([1]; 303.15 K) [kg/m3]	viscosity ([1]; 313.15 K) [mPa·s]	mass density ([1]; 313.15 K) [kg/m3]	viscosity ([1]; 323.15 K) [mPa·s]	mass density ([1]; 323.15 K) [kg/m3]	viscosity ([1]; 333.15 K) [mPa·s]	mass density ([1]; 333.15 K) [kg/m3]	viscosity ([2]; 293.15 K) [mPa·s]	mass density ([2]; 293.15 K) [kg/m3]	viscosity ([2]; 303.15 K) [mPa·s]	mass density ([2]; 303.15 K) [kg/m3]	viscosity ([2]; 313.15 K) [mPa·s]	mass density ([2]; 313.15 K) [kg/m3]	viscosity ([2]; 323.15 K) [mPa·s]	mass density ([2]; 323.15 K) [kg/m3]	viscosity ([2]; 333.15 K) [mPa·s]	mass density ([2]; 333.15 K) [kg/m3]
CCCCCCn1cc[n+](C)c1.F[B-](F)(F)F [1-hexyl-3-methylimidazolium tetrafluoroborate]	232.65	1149.24 ± 5.1	130.02	1142.48 ± 5.1	78.24	1135.79 ± 5.1	50.3	1129.08 ± 5.1	34.02	1122.37 ± 5.1										
CCCO [propan-1-ol]	2.204 ± 0.02	809.62 ± 5	1.615 ± 0.015	801.43 ± 5	1.188 ± 0.011	793.09 ± 5	0.8796 ± 0.0084	784.54 ± 5		775.74 ± 5										
CCCO [propan-1-ol] + CCCCCCn1cc[n+](C)c1.F[B-](F)(F)F											2.204 ± 0.02	809.62 ± 5	1.615 ± 0.015	801.43 ± 5	1.188 ± 0.011	793.09 ± 5	0.8796 ± 0.0084	784.54 ± 5	0.5985 ± 0.006	775.74 ± 5
